From patent US20210121505A1, “COMPOSITIONS AND METHODS FOR TREATING INFLAMMATORY BOWEL DISEASES” (Seres Therapeutics, Inc., priority 2018, published 2021)

How the values were obtained:
[1] = tested on: intestinal epithelial cells (HT29); test: IL-8 secretion assay, TNF-α-stimulated intestinal epithelial cells; assay type: cell-based; details: bile acid 62.5, 125, 250 μM, 1.25 ng/mL TNF-α, relative to no bile acid control, FIG. 6
Description: Since IBD primarily affects the intestinal tissues, whether the anti-inflammatory effects observed in monocytes and PBMCs were also true in intestinal epithelial cells (HT29) was assessed as described below.
HT29 cells, cultured in McCoys Medium supplemented with 10% FBS, GlutaMAX and Pen/Strep were plated at a density of 50 k cells/well in 96-well format and allowed to grow for 5 days until fully confluent. Culture medium was changed every two days. On day 5, cells were pre-treated for 1 hour with 250 μM, 125 μM or 62.5 μM bile acid compounds before exposure to 1.25 ng/mL TNF-α. Cells were incubated overnight (16 h) and culture supernatants were collected for IL-8 protein quantification by ELISA. IL-8 levels of test samples were normalized to inflammatory controls, DMSO pre-treated samples (i.e., no bile acids) that were exposed to the 1.25 ng/mL TNF-α.

[2] = tested on: LPS-stimulated peripheral blood mononuclear cells (PBMCs); test: TNF-α and IL-10 secretion assay, LPS-stimulated PBMCs; assay type: cell-based, Human; details: LPS-activated PBMCs; bile acid 12.5, 25, 50 μM; LPS 1 ng/mL; FIGS. 4A and 4B
Description: To better understand the possible relationship between the increased level of certain secondary bile acids and ulcerative colitis remission, monocytes and PBMCs were activated with LPS in the presence of varying concentrations of different primary and secondary bile acids in their conjugated and unconjugated forms. The amount of TNF-α and IL-10 produced by the activated cells was measured as described below.
Human buffy coat was obtained from Bioreclamation and shipped overnight on ice. Buffy coat was diluted 1:1 with PBS and layered on top of a Ficoll-Paque (GE Healthcare Cat #17-1440-03) in 50 mL falcon tubes. Samples were spun at 500×g for 20 min at room temperature with no brake. PBMCs were aspirated at the […] gradient layer and washed 3 times with PBS. Cells were counted with a hemocytometer to determine cell viability and concentration. Cells were plated onto 96 well plate and incubated at 37 C, 5% CO2 for 1 hour. Following this, bile acids were added at a final concentration of 12.5 μM, 25 μM and 50 μM for one hour prior to addition of LPS (1 ng/mL). After incubation of 16-20 hours, the cell culture media were collected for cytokine analysis. Cytokines were assayed using the Milliplex Human Cytokine kit (Luminex; Millipore), assaying IL-10 and TNF-α. Monocytes were isolated from PBMCs using the Miltenyi Biotec Pan Monocyte Isolation Kit (Cat No: 130-096-537) as per manufacturer's instructions and assayed as described above.

Structure (SMILES)	IL-8 production [1]	anti-inflammatory effects (higher IL-10, lower TNF-α) [2]
C[C@H](CCC(=O)NCCS(=O)(=O)O)[C@H]1CC[C@H]2[C@@H]3CC[C@@H]4C[C@H](OS(=O)(=O)O)CC[C@]4(C)[C@H]3CC[C@]12C [tLCA, tauro-sulfo-lithocholic acid]	decreased IL-8 production in a dose-dependent manner	greatest anti-inflammatory effects
CC(CCC(=O)NCC(=O)O)C1CCC2C3CCC4CC(O)CCC4(C)C3CC(O)C12C (stereo not drawn) [gDCA, glyco-deoxycholic acid]	decreased IL-8 production in a dose-dependent manner	greatest anti-inflammatory effects
C[C@H](CCC(=O)NCCS(=O)(=O)O)[C@H]1CC[C@H]2[C@@H]3CC[C@@H]4C[C@H](O)CC[C@]4(C)[C@H]3C[C@H](O)[C@]12C [tDCA, tauro-deoxycholic acid]	decreased IL-8 production in a dose-dependent manner	greatest anti-inflammatory effects
